Experimental data: paper PMC5453556, “Designing small molecules to target cryptic pockets yields both positive and negative allosteric modulators” (PLoS ONE, 2017)

Legend:
Assay type in all cases: biochemical
[1] = molecular target: TEM β-lactamase (TEM, M182T variant) (Escherichia coli, UniProt P62593, M180T); assay: TEM β-lactamase nitrocefin hydrolysis activity assay (UV-vis, 482 nm); conditions: for % change in rate: 50 µM nitrocefin; for kcat: TEM + 100 µM compound, nitrocefin
TEM L220N = TEM L220N (Escherichia coli, UniProt P62593, L218N/M180T)
chymotrypsin = molecular target: T1, chymotrypsin (Bos taurus, UniProt P00766); assay: Chymotrypsin reaction, test for non-specific activity (410 nm); conditions: alternative enzyme chymotrypsin; 30 nM enzyme, 200 μM N-succinyl-Ala-Ala-Pro-Phe p-nitroanilide, 25°C
T1 construct: purchased Sigma-Aldrich
Protocol: (§1) Chymotrypsin reactions were followed at 410 nm using 30 nM enzyme and 200 μM N-succinyl-Ala-Ala-Pro-Phe p-nitroanilide at 25°C. β-galactosidase reactions were followed at 420 nm using 4 nM enzyme and 1 mM 2-nitrophenyl β-D-galactopyranoside at 37°C. […] Enzymes and substrates were purchased from Sigma-Aldrich.

β-galactosidase = β-galactosidase reaction, test for non-specific activity (420 nm); conditions: alternative enzyme β-galactosidase; 4 nM enzyme, 1 mM 2-nitrophenyl β-D-galactopyranoside, 37°C
Protocol: as §1

TEM T265V = TEM T265V (Escherichia coli, UniProt P62593, M180T/T261V)
[2] = detergent-dependence: 0.01% Triton-X
[3] = detergent-dependence: 0% Triton-X

Oc1ccc(CC[C@H]2CC[C@H](c3ccc(O)cc3)CO2)cc1 (relative stereo) [compound 1]
% change in rate ([1]; 10x enzyme test: 1 nM TEM): +65%
kcat [1]: 527 ± 8 s⁻¹
% change in rate [1, 2]: +66%
kcat (TEM L220N): 5.2 ± 0.3 s⁻¹
% change in rate (chymotrypsin): -5%
% change in rate (β-galactosidase): +2%

COc1cccc(C(=O)C[C@@H](c2ccccc2)C(C)(C)[N+](=O)[O-])c1 (racemic) [compound 3]
% change in rate ([1]; 10x enzyme test: 1 nM TEM): -47%
% change in rate ([1]; 10x enzyme test: 10 nM TEM): -48%
kcat [1]: 256 ± 28 s⁻¹
% modulation of kcat / Km ([1]; TEM, 100 µM compound vs no compound): -59%
decrease of kcat/Km ([1]; TEM, as worded in the text (decreasing kcat/Km by)): 59%
% change in rate [1, 3]: -40%
% change in rate [1, 2]: -45%
% change in rate (chymotrypsin): -2%
% change in rate (β-galactosidase): +3%

c1nc(NCCCN2CCOCC2)c2c3c(sc2n1)CCCC3 [compound 2]
% change in rate ([1]; 10x enzyme test: 1 nM TEM): +38%
% change in rate ([1]; 10x enzyme test: 10 nM TEM): +33%
kcat [1]: 334 ± 5 s⁻¹
% change in rate [1, 3]: +30%
% change in rate [1, 2]: +33%
kcat (TEM T265V): 307 ± 17 s⁻¹
% change in rate (chymotrypsin): -1%
% change in rate (β-galactosidase): +5%
